This passage reports IC50 results from patent US20240116985A1, “STAPLED PEPTIDES AND METHODS THEREOF” (priority 2020, published 2024).

Experiment [1] addresses T1, full-length beta-Catenin (Uniprot ID P35222) (Homo sapiens, UniProt P35222).
T1 construct: 10 nM full-length beta-Catenin (Uniprot ID P35222)
T1 sequence (P35222 1-781): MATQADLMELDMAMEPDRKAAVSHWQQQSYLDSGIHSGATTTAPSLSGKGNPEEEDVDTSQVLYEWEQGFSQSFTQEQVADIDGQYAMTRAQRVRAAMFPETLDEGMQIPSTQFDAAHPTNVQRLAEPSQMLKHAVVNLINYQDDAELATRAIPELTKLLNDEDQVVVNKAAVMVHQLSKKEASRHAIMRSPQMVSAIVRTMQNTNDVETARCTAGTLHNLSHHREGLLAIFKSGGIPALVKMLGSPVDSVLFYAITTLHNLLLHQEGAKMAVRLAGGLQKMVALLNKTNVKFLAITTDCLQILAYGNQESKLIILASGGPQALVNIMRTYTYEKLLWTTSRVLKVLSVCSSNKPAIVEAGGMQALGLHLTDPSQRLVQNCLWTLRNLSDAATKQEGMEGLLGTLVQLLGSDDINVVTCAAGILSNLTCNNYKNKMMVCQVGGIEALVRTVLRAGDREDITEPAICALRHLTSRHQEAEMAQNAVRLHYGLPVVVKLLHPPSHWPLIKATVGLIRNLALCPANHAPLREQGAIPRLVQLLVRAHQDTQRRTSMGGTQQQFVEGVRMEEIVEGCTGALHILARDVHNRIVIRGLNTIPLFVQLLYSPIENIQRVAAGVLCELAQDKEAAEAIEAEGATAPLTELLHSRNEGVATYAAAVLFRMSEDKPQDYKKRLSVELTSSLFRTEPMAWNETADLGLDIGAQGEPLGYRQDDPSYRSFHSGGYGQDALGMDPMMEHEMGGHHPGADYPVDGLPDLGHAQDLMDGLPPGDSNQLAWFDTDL
The experiment can be described thus: Fluorescence polarization IC50 (beta-catenin / 5FAM-TCF4 10-53 competition). In kind it is binding. As to conditions: fluorescence polarization; read-out: beta-Catenin FP IC50. Background: In fluorescence polarisation assays a small probe gives low polarisation when free and higher when bound to something large.

For experiment [2], the target named is T2, beta-catenin/TCF4 engagement (Homo sapiens, UniProt P35222).
T2 construct: expressed in transfected cells; host or cells: HEK293
T2 sequence (P35222 1-781): T1 sequence (P35222 1-781)
The experiment can be described thus: Nano-BRET target engagement assay (B-cat-Halo & TCF4-Luc in HEK293 cells). As to conditions: absolute IC50; read-out: NanoBRET Abs IC50. In kind it is cell-based. (In general: BRET reads energy transfer from a luciferase to a nearby fluorophore.)

Consider `CC(=O)N1CCC[C@]12CCCCCCC1(CCCCCCCOC(=O)N3CC[C@@](C(=O)N[C@@H](Cc4ccsc4)C(=O)N[C@@H](Cc4csc5ccccc45)C(=O)N[C@@H](CCC(N)=O)C(N)=O)(C3)NC(=O)[C@H](CC(N)=O)NC(=O)[C@H](Cc3ccccc3)NC(=O)[C@H](C)NC(=O)[C@H](C)NC(=O)[C@H](CC(=O)O)NC(=O)[C@H](CC(=O)O)NC1=O)NC(=O)[C@H](CC(C)(C)C)NC(=O)[C@H](CC(=O)O)NC2=O` (stereo partly drawn) [I-1821, Ac-PL3-Asp-Npg-B5-Asp-Asp-Ala-Ala-Phe-Asn-PyrS1-3Thi-BztA-Gln-NH2], for which the values for the concentration for half-maximal inhibition (IC50) in experiment [1] and in experiment [2] were 67 nM and over 20000 nM, respectively.
`CC(=O)N1CCC[C@]12CCCCCCC1(CCCCCCCOC(=O)N3CC[C@@](C(=O)N[C@@H](Cc4ccsc4)C(=O)N[C@@H](Cc4csc5ccccc45)C(=O)N[C@@H](CCC(N)=O)C(N)=O)(C3)NC(=O)[C@H](CC(C)C)NC(=O)[C@H](Cc3ccccc3)NC(=O)[C@H](C)NC(=O)[C@H](C)NC(=O)[C@H](CC(=O)O)NC(=O)[C@H](CC(=O)O)NC1=O)NC(=O)[C@H](CC(C)(C)C)NC(=O)[C@H](CC(=O)O)NC2=O` (stereo partly drawn) [I-1822, Ac-PL3-Asp-Npg-B5-Asp-Asp-Ala-Ala-Phe-Leu-PyrS1-3Thi-BztA-Gln-NH2]: the IC50 (as a rule, the concentration that gives 50% inhibition) in experiment [1] was 60 nM; in experiment [2], over 20000 nM.
As to `CC(=O)N1CCC[C@]12CCCCCCC1(CCCCCCOC(=O)N3CC[C@@](C(=O)N[C@@H](Cc4ccsc4)C(=O)N[C@@H](Cc4csc5ccccc45)C(=O)N[C@@H](CCC(N)=O)C(N)=O)(C3)NC(=O)[C@H](CC(N)=O)NC(=O)[C@H](Cc3ccccc3)NC(=O)[C@H](C)NC(=O)[C@H](C)NC(=O)[C@H](CC(=O)O)NC(=O)[C@H](CC(=O)O)NC1=O)NC(=O)[C@H](CC(C)(C)C)NC(=O)[C@H](CC(=O)O)NC2=O` (stereo partly drawn) [I-1823, Ac-PL3-Asp-Npg-B5-Asp-Asp-Ala-Ala-Phe-Asn-PyrS-3Thi-BztA-Gln-NH2], the concentration for half-maximal inhibition (IC50) in experiment [1] is 41 nM; in experiment [2], over 20000 nM.
In the same order, the values of `CC(=O)N1CCC[C@]12CCCCCCC1(CCCCCCOC(=O)N3CC[C@@](C(=O)N[C@@H](Cc4ccsc4)C(=O)N[C@@H](Cc4csc5ccccc45)C(=O)N[C@@H](CCC(N)=O)C(N)=O)(C3)NC(=O)[C@H](CC(C)C)NC(=O)[C@H](Cc3ccccc3)NC(=O)[C@H](C)NC(=O)[C@H](C)NC(=O)[C@H](CC(=O)O)NC(=O)[C@H](CC(=O)O)NC1=O)NC(=O)[C@H](CC(C)(C)C)NC(=O)[C@H](CC(=O)O)NC2=O` (stereo partly drawn) [I-1824, Ac-PL3-Asp-Npg-B5-Asp-Asp-Ala-Ala-Phe-Leu-PyrS-3Thi-BztA-Gln-NH2] are 101 nM and over 20000 nM.
The matching figures for `CC(=O)N1CCC[C@]12CC=CCCCC1(CCCC=CCOC(=O)N3CC(C(=O)N[C@@H](Cc4ccsc4)C(=O)N[C@@H](Cc4csc5ccccc45)C(=O)N[C@@H](CCC(N)=O)C(N)=O)(C3)NC(=O)[C@H](CC(C)C)NC(=O)[C@H](Cc3ccccc3)NC(=O)[C@H](C)NC(=O)[C@H](C)NC(=O)[C@H](CC(=O)O)NC(=O)[C@H](CC(=O)O)NC1=O)NC(=O)[C@H](CC(C)(C)C)NC(=O)[C@H](CC(=O)O)NC2=O` (stereo partly drawn) [I-1828, Ac-PL3-Asp-Npg-B5-Asp-Asp-Ala-Ala-Phe-Leu-Az-3Thi-BztA-Gln-NH2]: 264 nM and over 20000 nM.
The matching figures for `CC(=O)N1CCC[C@]12CC=CCCCC1(CCCC=CCCCOC(=O)N3CC[C@@](C(=O)N[C@@H](Cc4ccccc4Cl)C(=O)N[C@@H](Cc4csc5ccccc45)C(=O)N[C@@H](CCC(N)=O)C(N)=O)(C3)NC(=O)[C@H](CC(C)C)NC(=O)[C@H](Cc3ccccc3)NC(=O)[C@H](C)NC(=O)[C@H](C)NC(=O)[C@H](CN(CC(=O)O)CC(F)(F)F)NC(=O)[C@H](CC(=O)O)NC1=O)NC(=O)[C@H](CC(C)(C)C)NC(=O)[C@H](CC(=O)O)NC2=O` (stereo partly drawn) [I-1833, Ac-PL3-Asp-Npg-B5-Asp-TfeGA-Ala-Ala-Phe-Leu-PyrS2-2C1F-BztA-Gln-NH2]: 26 nM and 6900 nM.
As for `CC(=O)N1CCC[C@]12CC=CCCCC1(CCCC=CCCCOC(=O)N3CC[C@@](C(=O)N[C@@H](Cc4ccsc4)C(=O)N[C@@H](Cc4csc5ccccc45)C(=O)N[C@@H](CCC(N)=O)C(N)=O)(C3)NC(=O)[C@H](CC(C)C)NC(=O)[C@H](Cc3ccccc3)NC(=O)[C@H](C)NC(=O)[C@H](C)NC(=O)[C@H](CCN(CC(=O)O)Cc3ccccc3)NC(=O)[C@H](CC(=O)O)NC1=O)NC(=O)[C@H](CC(C)(C)C)NC(=O)[C@H](CC(=O)O)NC2=O` (stereo partly drawn) [I-1834, Ac-PL3-Asp-Npg-B5-Asp-[Bn]GAbu-Ala-Ala-Phe-Leu-PyrS2-3Thi-BztA-Gln-NH2], the IC50 in experiment [1] was determined as 35 nM; in experiment [2], 18800 nM.
On to `CCN(CC[C@@H]1NC(=O)[C@H](CC(=O)O)NC(=O)C2(CCCC=CCCCOC(=O)N3CC[C@@](C(=O)N[C@@H](Cc4ccsc4)C(=O)N[C@@H](Cc4csc5ccccc45)C(=O)N[C@@H](CCC(N)=O)C(N)=O)(C3)NC(=O)[C@H](CC(C)C)NC(=O)[C@H](Cc3ccccc3)NC(=O)[C@H](C)NC(=O)[C@H](C)NC1=O)CCCC=CC[C@]1(CCCN1C(C)=O)C(=O)N[C@@H](CC(=O)O)C(=O)N[C@@H](CC(C)(C)C)C(=O)N2)CC(=O)O` (stereo partly drawn) [I-1835, Ac-PL3-Asp-Npg-B5-Asp-[Et]GAbu-Ala-Ala-Phe-Leu-PyrS2-3Thi-BztA-Gln-NH2], for which the values for the IC50 in experiment [1] and in experiment [2] were 34 nM and 31900 nM, respectively.
Consider `CC(=O)N1CCC[C@]12CC=CCCCC1(CCCC=CCCCOC(=O)N3CC[C@@](C(=O)N[C@@H](Cc4ccsc4)C(=O)N[C@@H](Cc4csc5ccccc45)C(=O)N[C@@H](CCC(N)=O)C(N)=O)(C3)NC(=O)[C@H](CC(C)C)NC(=O)[C@H](Cc3ccccc3)NC(=O)[C@H](C)NC(=O)[C@H](C)NC(=O)[C@H](CCN(CCCC(F)(F)F)CC(=O)O)NC(=O)[C@H](CC(=O)O)NC1=O)NC(=O)[C@H](CC(C)(C)C)NC(=O)[C@H](CC(=O)O)NC2=O` (stereo partly drawn) [I-1837, Ac-PL3-Asp-Npg-B5-Asp-[Tfb]GAbu-Ala-Ala-Phe-Leu-PyrS2-3Thi-BztA-Gln-NH2], for which the half-inhibitory concentration (IC50) in experiment [1] worked out at 19 nM; in experiment [2] it was 18500 nM.
In the same order, the values of `CC(=O)N1CCC[C@]12CC=CCCCC1(CCCC=CCCCOC(=O)N3CC[C@@](C(=O)N[C@@H](Cc4ccsc4)C(=O)N[C@@H](Cc4csc5ccccc45)C(=O)N[C@@H](CCC(N)=O)C(N)=O)(C3)NC(=O)[C@H](CC(C)C)NC(=O)[C@H](Cc3ccccc3)NC(=O)[C@H](C)NC(=O)[C@H](C)NC(=O)[C@H](CCN(CC(=O)O)Cc3c(F)c(F)c(F)c(F)c3F)NC(=O)[C@H](CC(=O)O)NC1=O)NC(=O)[C@H](CC(C)(C)C)NC(=O)[C@H](CC(=O)O)NC2=O` (stereo partly drawn) [I-1838, Ac-PL3-Asp-Npg-B5-Asp-[Pfbn]GAbu-Ala-Ala-Phe-Leu-PyrS2-3Thi-BztA-Gln-NH2] are 85 nM and 7900 nM.
The matching figures for `CC(=O)N1CCC[C@]12CC=CCCCC1(CCCC=CCCCOC(=O)N3CC[C@@](C(=O)N[C@@H](Cc4ccsc4)C(=O)N[C@@H](Cc4csc5ccccc45)C(=O)N[C@@H](CCC(N)=O)C(N)=O)(C3)NC(=O)[C@H](CC(C)C)NC(=O)[C@H](Cc3ccccc3)NC(=O)[C@H](C)NC(=O)[C@H](C)NC(=O)[C@H](CCN(CCC(F)(F)F)CC(=O)O)NC(=O)[C@H](CC(=O)O)NC1=O)NC(=O)[C@H](CC(C)(C)C)NC(=O)[C@H](CC(=O)O)NC2=O` (stereo partly drawn) [I-1839, Ac-PL3-Asp-Npg-B5-Asp-[Tfp]GAbu-Ala-Ala-Phe-Leu-PyrS2-3Thi-BztA-Gln-NH2]: 21 nM and 14600 nM.
The matching figures for `CC(=O)N(CC[C@@H]1NC(=O)[C@H](CC(=O)O)NC(=O)C2(CCCC=CCCCOC(=O)N3CC[C@@](C(=O)N[C@@H](Cc4ccsc4)C(=O)N[C@@H](Cc4csc5ccccc45)C(=O)N[C@@H](CCC(N)=O)C(N)=O)(C3)NC(=O)[C@H](CC(C)C)NC(=O)[C@H](Cc3ccccc3)NC(=O)[C@H](C)NC(=O)[C@H](C)NC1=O)CCCC=CC[C@]1(CCCN1C(C)=O)C(=O)N[C@@H](CC(=O)O)C(=O)N[C@@H](CC(C)(C)C)C(=O)N2)CC(=O)O` (stereo partly drawn) [I-1840, Ac-PL3-Asp-Npg-B5-Asp-[Ac]GAbu-Ala-Ala-Phe-Leu-PyrS2-3Thi-BztA-Gln-NH2]: 14 nM and 22300 nM.
Take `CC(=O)N1CCC[C@]12CC=CCCCC1(CCCC=CCCCOC(=O)N3CC[C@@](C(=O)N[C@@H](Cc4ccsc4)C(=O)N[C@@H](Cc4csc5ccccc45)C(=O)N[C@@H](CCC(N)=O)C(N)=O)(C3)NC(=O)[C@H](CC(C)C)NC(=O)[C@H](Cc3ccccc3)NC(=O)[C@H](C)NC(=O)[C@H](C)NC(=O)[C@H](CCNCC(=O)O)NC(=O)[C@H](CC(=O)O)NC1=O)NC(=O)[C@H](CC(C)(C)C)NC(=O)[C@H](CC(=O)O)NC2=O` (stereo partly drawn) [I-1841, Ac-PL3-Asp-Npg-B5-Asp-GAbu-Ala-Ala-Phe-Leu-PyrS2-3Thi-BztA-Gln-NH2]: the half-inhibitory concentration (IC50) is 76 nM in experiment [1] and over 20000 nM in experiment [2].
